This note sets out measurements from ChEMBL document CHEMBL4000224, “Cadiolides J-M, antibacterial polyphenyl butenolides from the Korean tunicate Pseudodistoma antinboja” (2017).

Structures are written as SMILES. Values after ≈ are worked out from the molar mass of the structure shown. Active and inactive are the calls of the source. The calls are words filed in the database; no cut-off is given here.

Common to all, as to assay type: functional
The test system of experiment [1] is Staphylococcus aureus. The experiment is described as follows: Anti-bacterial activity against methicillin-susceptible Staphylococcus aureus CCARM 0205 by 2-fold microtiter broth dilution method. (In broth dilution the organism is exposed to a series of concentrations in liquid medium.)
A further experiment concerns Klebsiella pneumoniae. Briefly: Anti-bacterial activity against Klebsiella pneumoniae ATCC 4352 by 2-fold microtiter broth dilution method.
Experiment [2] relates to Staphylococcus aureus. The experiment is described as follows: Anti-bacterial activity against methicillin-resistant Staphylococcus aureus CCARM 3635 by 2-fold microtiter broth dilution method.
Experiment [3] has as its system Staphylococcus aureus. The experiment is described as follows: Anti-bacterial activity against methicillin-susceptible Staphylococcus aureus CCARM 3640 by 2-fold microtiter broth dilution method.
For experiment [4], the system named is Staphylococcus aureus. The experiment is described as follows: Anti-bacterial activity against methicillin-susceptible Staphylococcus aureus CCARM 0027 by 2-fold microtiter broth dilution method.
In experiment [5] the test system is Staphylococcus aureus. Briefly: Anti-bacterial activity against methicillin-resistant Staphylococcus aureus CCARM 3634 by 2-fold microtiter broth dilution method.
The subject of the next experiment is Escherichia coli. The experiment is described as follows: Anti-bacterial activity against Escherichia coli ATCC 11775 by 2-fold microtiter broth dilution method. Conditions: DSM 30083 = JCM 1649 = ATCC 11775.
In experiment [6] the test system is Staphylococcus aureus. The experiment is described as follows: Anti-bacterial activity against methicillin-resistant Staphylococcus aureus CCARM 3089 by 2-fold microtiter broth dilution method.
Experiment [7] deals with Staphylococcus aureus. Briefly: Anti-bacterial activity against methicillin-susceptible Staphylococcus aureus CCARM 0204 by 2-fold microtiter broth dilution method.
Experiment [8] has as its system Staphylococcus aureus. The experiment is described as follows: Anti-bacterial activity against methicillin-resistant Staphylococcus aureus CCARM 3090 by 2-fold microtiter broth dilution method.
For the next experiment, the system named is Salmonella typhimurium. The experiment is described as follows: Anti-bacterial activity against Salmonella typhimurium ATCC 14028 by 2-fold microtiter broth dilution method. The conditions noted are these: Salmonella enterica subsp. enterica serovar Typhimurium.

Broadly, the MIC is the lowest concentration found to suppress growth. In the case of `COc1ccc(C=C2OC(=O)C([C@@H](O)c3cc(Br)c(OC)c(Br)c3)=C2c2cc(Br)c(O)c(Br)c2)cc1Br`, the MIC is 2 µg/mL (≈ 2.42 µM) against Staphylococcus aureus [1]; 4 µg/mL (≈ 4.85 µM) against Staphylococcus aureus [2]; 4 µg/mL (≈ 4.85 µM) against Staphylococcus aureus [3]; 4 µg/mL (≈ 4.85 µM) against Staphylococcus aureus [4]; 4 µg/mL (≈ 4.85 µM) in the experiment on Staphylococcus aureus [5]; 8 µg/mL (≈ 9.7 µM) with Staphylococcus aureus [6]. In addition, the MIC with Staphylococcus aureus [7] and in the experiment with Staphylococcus aureus [8] was 4 µg/mL (≈ 4.85 µM) throughout. Besides, the outcome with Klebsiella pneumoniae, with Escherichia coli and with Salmonella typhimurium was inactive.

With `C[C@]12C[C@@]34C=CC(=O)[C@@](C)(CCC(=O)Nc5c(O)ccc(C(=O)O)c5O)[C@@H]3[C@H](C[C@@H]1C4)O2`, the MIC was 4 µg/mL (≈ 9.06 µM) with Staphylococcus aureus [1]; 8 µg/mL (≈ 18.1 µM) in the experiment on Staphylococcus aureus [2]; 8 µg/mL (≈ 18.1 µM) in the experiment on Staphylococcus aureus [3]; 4 µg/mL (≈ 9.06 µM) against Staphylococcus aureus [4]; 8 µg/mL (≈ 18.1 µM) against Staphylococcus aureus [5]; 8 µg/mL (≈ 18.1 µM) against Staphylococcus aureus [6]. Moreover, the results for the minimum inhibitory concentration (MIC) with Staphylococcus aureus [7] and with Staphylococcus aureus [8] were 4 µg/mL (≈ 9.06 µM) and 8 µg/mL (≈ 18.1 µM), respectively.

Regarding `CN[C@H](CC(C)C)C(=O)N[C@H]1C(=O)N[C@@H](CC(N)=O)C(=O)N[C@H]2C(=O)N[C@H]3C(=O)N[C@H](C(=O)N[C@H](C(=O)O)c4cc(O)cc(O)c4-c4cc3ccc4O)[C@H](O)c3ccc(c(Cl)c3)Oc3cc2cc(c3O[C@@H]2O[C@H](CO)[C@@H](O)[C@H](O)[C@H]2O[C@H]2C[C@](C)(N)[C@H](O)[C@H](C)O2)Oc2ccc(cc2Cl)[C@H]1O` [VANCOMYCIN], the MIC against Staphylococcus aureus [1] is less than 0.13 µg/mL; in the experiment with Staphylococcus aureus [3] it was 0.25 µg/mL (≈ 0.173 µM); against Staphylococcus aureus [7], 0.25 µg/mL (≈ 0.173 µM).

Regarding `COc1ccc(C=C2OC(=O)C([C@@H](O)c3cc(Br)c(OC)c(Br)c3)=C2c2cc(Br)c(O)c(Br)c2)cc1`, the MIC with Staphylococcus aureus [1] came to 4 µg/mL (≈ 5.36 µM); with Staphylococcus aureus [2] it was 4 µg/mL (≈ 5.36 µM); in the experiment on Staphylococcus aureus [3], 8 µg/mL (≈ 10.7 µM); against Staphylococcus aureus [4], 4 µg/mL (≈ 5.36 µM); with Staphylococcus aureus [5], 4 µg/mL (≈ 5.36 µM); in the experiment with Staphylococcus aureus [6], 4 µg/mL (≈ 5.36 µM). The results for the MIC in the experiment with Staphylococcus aureus [7] and in the experiment on Staphylococcus aureus [8] were 4 µg/mL (≈ 5.36 µM) and 8 µg/mL (≈ 10.7 µM), respectively. The result with Klebsiella pneumoniae, in the experiment with Escherichia coli and with Salmonella typhimurium was inactive.

For the compound `CCCCCCCCCC(=O)N[C@@H](Cc1c[nH]c2ccccc12)C(=O)N[C@@H](CC(N)=O)C(=O)N[C@@H](CC(=O)O)C(=O)N[C@@H]1C(=O)NCC(=O)N[C@@H](CCCN)C(=O)N[C@@H](CC(=O)O)C(=O)N[C@H](C)C(=O)N[C@@H](CC(=O)O)C(=O)NCC(=O)N[C@H](CO)C(=O)N[C@@H]([C@H](C)CC(=O)O)C(=O)N[C@@H](CC(=O)c2ccccc2N)C(=O)O[C@@H]1C` [DAPTOMYCIN], the MIC with Staphylococcus aureus [1] is 2 µg/mL (≈ 1.23 µM); with Staphylococcus aureus [2], greater than 32 µg/mL; in the experiment with Staphylococcus aureus [3], 16 µg/mL (≈ 9.87 µM); against Staphylococcus aureus [4], 16 µg/mL (≈ 9.87 µM); in the experiment on Staphylococcus aureus [5] it was greater than 32 µg/mL; in the experiment with Staphylococcus aureus [6], greater than 32 µg/mL. The MIC against Staphylococcus aureus [7] is 4 µg/mL (≈ 2.47 µM); against Staphylococcus aureus [8], greater than 32 µg/mL.

Turning to `COc1c(Br)cc([C@H](O)C2=C(c3ccc(O)c(Br)c3)/C(=C/c3cc(Br)c(O)c(Br)c3)OC2=O)cc1Br`, the MIC came out at 2 µg/mL (≈ 2.47 µM) against Staphylococcus aureus [1]; 4 µg/mL (≈ 4.93 µM) against Staphylococcus aureus [2]; 4 µg/mL (≈ 4.93 µM) in the experiment on Staphylococcus aureus [3]; 4 µg/mL (≈ 4.93 µM) against Staphylococcus aureus [4]; 4 µg/mL (≈ 4.93 µM) in the experiment with Staphylococcus aureus [5]; 4 µg/mL (≈ 4.93 µM) against Staphylococcus aureus [6]. Besides, the MIC in the experiment with Staphylococcus aureus [7] worked out at 2 µg/mL (≈ 2.47 µM); against Staphylococcus aureus [8], 4 µg/mL (≈ 4.93 µM). In addition, the result with Klebsiella pneumoniae, in the experiment with Escherichia coli and in the experiment on Salmonella typhimurium was inactive.

As for `COc1c(Br)cc([C@H](O)C2=C(c3cc(Br)c(O)c(Br)c3)/C(=C/c3ccc(O)c(Br)c3)OC2=O)cc1Br`, the MIC was 0.5 µg/mL (≈ 0.617 µM) in the experiment with Staphylococcus aureus [1]; 1 µg/mL (≈ 1.23 µM) in the experiment on Staphylococcus aureus [2]; 1 µg/mL (≈ 1.23 µM) in the experiment with Staphylococcus aureus [3]; 1 µg/mL (≈ 1.23 µM) against Staphylococcus aureus [4]; 2 µg/mL (≈ 2.47 µM) with Staphylococcus aureus [5]; 2 µg/mL (≈ 2.47 µM) in the experiment on Staphylococcus aureus [6]. For the same compound, the MIC with Staphylococcus aureus [7] came out at 1 µg/mL (≈ 1.23 µM); in the experiment with Staphylococcus aureus [8], 2 µg/mL (≈ 2.47 µM). In addition, the outcome in the experiment with Klebsiella pneumoniae, with Escherichia coli and in the experiment on Salmonella typhimurium was inactive.

With `O=C1O/C(=C\c2cc(Br)c(O)c(Br)c2)C(c2cc(Br)c(O)c(Br)c2)=C1[C@@H](O)c1cc(Br)c(O)c(Br)c1`, the MIC is 1 µg/mL (≈ 1.14 µM) against Staphylococcus aureus [1]; 1 µg/mL (≈ 1.14 µM) in the experiment on Staphylococcus aureus [2]; 1 µg/mL (≈ 1.14 µM) against Staphylococcus aureus [3]; 2 µg/mL (≈ 2.28 µM) against Staphylococcus aureus [4]; 1 µg/mL (≈ 1.14 µM) with Staphylococcus aureus [5]; 1 µg/mL (≈ 1.14 µM) against Staphylococcus aureus [6]. The MIC against Staphylococcus aureus [7] and against Staphylococcus aureus [8] was 1 µg/mL (≈ 1.14 µM) in each case. The result in the experiment with Klebsiella pneumoniae, with Escherichia coli and in the experiment on Salmonella typhimurium was inactive.
